Reference: patent US10385057B2, “Pyrazole compounds and methods of making and using same” (Lundbeck La Jolla Research Center, Inc., priority 2015, dated 2019)
pIC50: −log10 of the molar value.

Experiments:
[1] = biological target: T1, MAGL (Mus musculus, UniProt O35678); test: In vitro competitive activity-based protein profiling, mouse MAGL; assay type: biochemical; conditions: for inhibition at 1 µM: read-out: MAGL % inh. 1 μM (mouse)
T1 construct: mouse brain membrane fraction or cell lysates for mouse assays; from tissue
T1 sequence (O35678 1-303): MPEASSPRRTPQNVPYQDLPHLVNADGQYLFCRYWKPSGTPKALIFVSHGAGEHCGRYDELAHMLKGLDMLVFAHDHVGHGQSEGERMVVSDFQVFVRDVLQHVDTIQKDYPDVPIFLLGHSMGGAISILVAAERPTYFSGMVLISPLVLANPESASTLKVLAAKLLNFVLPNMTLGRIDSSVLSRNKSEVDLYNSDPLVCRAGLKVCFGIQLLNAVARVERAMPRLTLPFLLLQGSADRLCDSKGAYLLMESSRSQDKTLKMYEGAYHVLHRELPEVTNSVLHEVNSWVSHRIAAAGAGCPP
Summary of the method: (§1)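 Mouse brain membranes or cell lysates (mouse) and human prefrontal cortex or cell membrane fractions (human), 1.0 mg/mL protein, preincubated with inhibitor 30 min at 37 °C, then FP-Rh or HT-01 probe 30 min at 37 °C. SDS-PAGE; MAGL and FAAH activity from in-gel fluorescence band intensity.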

[2] = biological target: T2, FAAH (Mus musculus, UniProt O08914); test: In vitro competitive activity-based protein profiling, mouse FAAH; assay type: biochemical; conditions: for inhibition at 1 µM: read-out: FAAH % inh. 1 μM (mouse)
T2 construct: mouse brain membrane fraction or cell lysates for mouse assays; from tissue
T2 sequence (O08914 1-579): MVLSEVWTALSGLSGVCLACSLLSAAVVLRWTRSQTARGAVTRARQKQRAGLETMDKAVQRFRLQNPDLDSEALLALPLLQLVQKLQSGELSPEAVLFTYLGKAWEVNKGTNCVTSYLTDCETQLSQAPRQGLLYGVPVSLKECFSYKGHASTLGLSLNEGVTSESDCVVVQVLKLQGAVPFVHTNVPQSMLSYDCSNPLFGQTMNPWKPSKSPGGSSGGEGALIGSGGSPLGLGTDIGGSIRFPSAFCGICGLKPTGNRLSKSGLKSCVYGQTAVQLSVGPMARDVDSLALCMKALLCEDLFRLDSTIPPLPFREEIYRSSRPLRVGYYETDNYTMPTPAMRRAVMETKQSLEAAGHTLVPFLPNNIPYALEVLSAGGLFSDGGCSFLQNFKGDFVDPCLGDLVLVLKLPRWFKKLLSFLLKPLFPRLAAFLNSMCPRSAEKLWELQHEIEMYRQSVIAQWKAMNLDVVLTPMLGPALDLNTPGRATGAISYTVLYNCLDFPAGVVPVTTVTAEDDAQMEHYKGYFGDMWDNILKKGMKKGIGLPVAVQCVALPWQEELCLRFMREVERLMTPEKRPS
Summary of the method: as §1

Compound `O=C(N1CC2CN(Cc3cccc(Cl)c3)CC2C1)n1cc(Cl)cn1` (stereo not drawn) [Example 117, (4-chloro-1H-pyrazol-1-yl)(5-(3-chlorobenzyl)hexahydropyrrolo[3,4-c]pyrrol-2(1H)-yl)methanone] has a pIC50 [1] of at least 7.00, an inhibition at 1 µM [1] of at least 75% and a pIC50 [2] of at least 7.00. The inhibition at 1 µM [2] was at least 75%.
Work on `O=C(N1CC2CN(Cc3ccc(C(F)(F)F)cc3)CC2C1)n1cc(Cl)cn1` (stereo not drawn) [Example 120, (4-chloro-1H-pyrazol-1-yl)(5-(4-(trifluoromethyl)benzyl)hexahydropyrrolo[3,4-c]pyrrol-2(1H)-yl)methanone] yielded a pIC50 [1] of at least 7.00, an inhibition at 1 µM [1] of at least 75% and a pIC50 [2] of at least 7.00. It also gave an inhibition at 1 µM [2] of at least 75%.
`Cc1cc(-c2ccccc2)ccc1CN1CC2CN(C(=O)n3cc(Cl)cn3)CC2C1` (stereo not drawn) [Example 121, (4-chloro-1H-pyrazol-1-yl)(5-((3-methyl-[1,1′-biphenyl]-4-yl)methyl)hexahydropyrrolo[3,4-c]pyrrol-2(1H)-yl)methanone] showed a pIC50 [1] of at least 7.00, an inhibition at 1 µM [1] of at least 75% and a pIC50 [2] of at least 7.00. It also gave an inhibition at 1 µM [2] of at least 75%.
For `O=C(N1CC2CN(Cc3ccc(CN4CCOCC4)cc3)CC2C1)n1cc(Cl)cn1` (stereo not drawn) [Example 122, (4-chloro-1H-pyrazol-1-yl)(5-(4-(morpholinomethyl)benzyl)hexahydropyrrolo[3,4-c]pyrrol-2(1H)-yl)methanone], the pIC50 [1] was 6.00 to 7.00, the inhibition at 1 µM [1] was at least 75% and the pIC50 [2] was 6.00 to 7.00. For the same compound, the inhibition at 1 µM [2] was at least 75%.
Compound `O=C(N1CC2CN(Cc3ccc(N4CCCC4)cc3)CC2C1)n1cc(Cl)cn1` (stereo not drawn) [Example 123, (4-chloro-1H-pyrazol-1-yl)(5-(4-(pyrrolidin-1-yl)benzyl)hexahydropyrrolo[3,4-c]pyrrol-2(1H)-yl)methanone] has a pIC50 [1] of 6.00 to 7.00, an inhibition at 1 µM [1] of at least 75% and a pIC50 [2] of 6.00 to 7.00. It also gave an inhibition at 1 µM [2] of at least 75%.
`O=C(N1CC2CN(Cc3cccc(Oc4ccccc4)c3)CC2C1)n1cc(Cl)cn1` (stereo not drawn) [Example 124, (4-chloro-1H-pyrazol-1-yl)(5-(3-phenoxybenzyl)hexahydropyrrolo[3,4-c]pyrrol-2(1H)-yl)methanone] showed a pIC50 [1] of at least 7.00, an inhibition at 1 µM [1] of at least 75% and a pIC50 [2] of at least 7.00. For the same compound, the inhibition at 1 µM [2] was at least 75%.
Work on `O=C(N1CC2CN(Cc3ccc(N4CCOCC4)cc3)CC2C1)n1cc(Cl)cn1` (stereo not drawn) [Example 125, (4-chloro-1H-pyrazol-1-yl)(5-(4-morpholinobenzyl)hexahydropyrrolo[3,4-c]pyrrol-2(1H)-yl)methanone] yielded a pIC50 [1] of 6.00 to 7.00, an inhibition at 1 µM [1] of at least 75% and a pIC50 [2] of 6.00 to 7.00. The inhibition at 1 µM [2] was at least 75%.
In the case of `O=C(N1CC2CN(Cc3ccc(N4CCOCC4)cc3Cl)CC2C1)n1cc(Cl)cn1` (stereo not drawn) [Example 126, (4-chloro-1H-pyrazol-1-yl)(5-(2-chloro-4-morpholinobenzyl)hexahydropyrrolo[3,4-c]pyrrol-2(1H)-yl)methanone], the pIC50 [1] was at least 7.00, the inhibition at 1 µM [1] was at least 75% and the pIC50 [2] was at least 7.00. The inhibition at 1 µM [2] was at least 75%.
`O=C(N1CCC2(CCN(Cc3ccc(Cl)c(Cl)c3)C2)C1)n1cc(Cl)cn1` (stereo not drawn) [Example 127, (4-chloro-1H-pyrazol-1-yl)(7-(3,4-dichlorobenzyl)-2,7-diazaspiro[4.4]nonan-2-yl)methanone] gave a pIC50 [1] of 6.00 to 7.00, an inhibition at 1 µM [1] of at least 75% and a pIC50 [2] of at least 7.00. The inhibition at 1 µM [2] was at least 75%.
Work on `O=C(N1CCC2(CCN(Cc3ccc(C(F)(F)F)cc3)C2)C1)n1cc(Cl)cn1` (stereo not drawn) [Example 128, (4-chloro-1H-pyrazol-1-yl)(7-(4-(trifluoromethyl)benzyl)-2,7-diazaspiro[4.4]nonan-2-yl)methanone] yielded a pIC50 [1] of 6.00 to 7.00, an inhibition at 1 µM [1] of at least 75% and a pIC50 [2] of 6.00 to 7.00. For the same compound, the inhibition at 1 µM [2] was at least 75%.
`O=C(N1CCC2(CCN(Cc3ccc(CN4CCOCC4)cc3)C2)C1)n1cc(Cl)cn1` (stereo not drawn) [Example 129, (4-chloro-1H-pyrazol-1-yl)(7-(4-(morpholinomethyl)benzyl)-2,7-diazaspiro[4.4]nonan-2-yl)methanone] was tested, and the inhibition at 1 µM [1] was 25 to 50% and the inhibition at 1 µM [2] was 50 to 75%.
`Cc1cc(N2CCOCC2)ccc1CN1CC2CN(C(=O)n3cc(Cl)cn3)CC2C1` (stereo not drawn) [Example 131, (4-chloro-1H-pyrazol-1-yl)(5-(2-methyl-4-morpholinobenzyl)hexahydropyrrolo[3,4-c]pyrrol-2(1H)-yl)methanone] showed a pIC50 [1] of at least 7.00, an inhibition at 1 µM [1] of at least 75% and a pIC50 [2] of at least 7.00. The inhibition at 1 µM [2] was at least 75%.
`O=C(N1CCC2(CCN(Cc3ccc(N4CCCC4)cc3)C2)C1)n1cc(Cl)cn1` (stereo not drawn) [Example 134, (4-chloro-1H-pyrazol-1-yl)(7-(4-(pyrrolidin-1-yl)benzyl)-2,7-diazaspiro[4.4]nonan-2-yl)methanone] was tested, and the pIC50 [1] was 6.00 to 7.00, the inhibition at 1 µM [1] was at least 75% and the pIC50 [2] was at least 7.00. For the same compound, the inhibition at 1 µM [2] was at least 75%.
`O=C(N1CCC2(CCN(Cc3cccc(Oc4ccccc4)c3)C2)C1)n1cc(Cl)cn1` (stereo not drawn) [Example 135, (4-chloro-1H-pyrazol-1-yl)(7-(3-phenoxybenzyl)-2,7-diazaspiro[4.4]nonan-2-yl)methanone] showed a pIC50 [1] of 6.00 to 7.00, an inhibition at 1 µM [1] of at least 75% and a pIC50 [2] of at least 7.00. The inhibition at 1 µM [2] was at least 75%.
`O=C(N1CCC2(CCN(Cc3ccc(N4CCOCC4)cc3)C2)C1)n1cc(Cl)cn1` (stereo not drawn) [Example 136, (4-chloro-1H-pyrazol-1-yl)(7-(4-morpholinobenzyl)-2,7-diazaspiro[4.4]nonan-2-yl)methanone] was tested, and the pIC50 [1] was 6.00 to 7.00, the inhibition at 1 µM [1] was at least 75% and the pIC50 [2] was 6.00 to 7.00. The inhibition at 1 µM [2] was at least 75%.
`O=C(N1CCC2(CCN(Cc3ccc(N4CCOCC4)cc3Cl)C2)C1)n1cc(Cl)cn1` (stereo not drawn) [Example 137, (4-chloro-1H-pyrazol-1-yl)(7-(2-chloro-4-morpholinobenzyl)-2,7-diazaspiro[4.4]nonan-2-yl)methanone] was tested, and the pIC50 [1] was at least 7.00, the inhibition at 1 µM [1] was at least 75% and the pIC50 [2] was at least 7.00. The inhibition at 1 µM [2] was at least 75%.
In the case of `Cc1cc(N2CCOCC2)ccc1CN1CCC2(CCN(C(=O)n3cc(Cl)cn3)C2)C1` (stereo not drawn) [Example 138, (4-chloro-1H-pyrazol-1-yl)(7-(2-methyl-4-morpholinobenzyl)-2,7-diazaspiro[4.4]nonan-2-yl)methanone], the pIC50 [1] was 6.00 to 7.00, the inhibition at 1 µM [1] was at least 75% and the pIC50 [2] was at least 7.00. The inhibition at 1 µM [2] was at least 75%.
In the case of `Cc1cccc(CN2CC3CN(C(=O)n4cc(C(F)(F)F)cn4)CC3C2)c1` (stereo not drawn) [Example 141, (5-(3-methylbenzyl)hexahydropyrrolo[3,4-c]pyrrol-2(1H)-yl)(4-(trifluoromethyl)-1H-pyrazol-1-yl)methanone], the pIC50 [1] was at least 7.00, the inhibition at 1 µM [1] was at least 75% and the pIC50 [2] was at least 7.00. The inhibition at 1 µM [2] was at least 75%.
With `COc1cccc(CN2CC3CN(C(=O)n4cc(C(F)(F)F)cn4)CC3C2)c1` (stereo not drawn) [Example 142, (5-(3-methoxybenzyl)hexahydropyrrolo[3,4-c]pyrrol-2(1H)-yl)(4-(trifluoromethyl)-1H-pyrazol-1-yl)methanone] the pIC50 [1] was at least 7.00, the inhibition at 1 µM [1] was at least 75% and the pIC50 [2] was at least 7.00. It also gave an inhibition at 1 µM [2] of at least 75%.
Compound `O=C(N1CC2CN(Cc3cccc(C(F)(F)F)c3)CC2C1)n1cc(C(F)(F)F)cn1` (stereo not drawn) [Example 143, (4-(trifluoromethyl)-1H-pyrazol-1-yl)(5-(3-(trifluoromethyl)benzyl)hexahydropyrrolo[3,4-c]pyrrol-2(1H)-yl)methanone] has a pIC50 [1] of at least 7.00, an inhibition at 1 µM [1] of at least 75% and a pIC50 [2] of at least 7.00. The inhibition at 1 µM [2] was at least 75%.
